Measurements reported in paper PMC10178127, “Immunomodulatory Effects of the Pea Defensin Psd1 in the Caco-2/Immune Cells Co-Culture upon Candida albicans Infection” (International Journal of Molecular Sciences, 2023).

Tested on: Caco-2/monocytes co-culture
Assay: Multiplex xMAP cytokine production, Caco-2/monocytes co-culture
Assay type: cell-based, human
Settings: 24 h; for EGF level / Eotaxin level / FGF-2 level / FLT-3L level / Fractalkine level / G-CSF level / GM-CSF level / GROa level / IFNa2 level / IFNg level / IL-1RA level / IL-1a level / IL-1b level / IL-2 level / IL-3 level / IL-4 level / IL-5 level / IL-6 level / IL-7 level / IL-8 level / IL-9 level / IL-10 level / IL-12 (p40) level / IL-12 (p70) level / IL-13 level / IL-15 level / IL-17A level / IL-17E/IL-25 level / IL-17F level / IL-18 level / IL-22 level / IL-27 level / IP-10 level / M-GSF level / MCP-1 level / MCP-3 level / MDC level / MIG level / MIP-1a level / MIP-1b level / PDGF-AA level / PDGF-AB/BB level / RANTES level / TGF-a level / TNFa level / TNFb level / VEGFa level / sCD40L level: 2 µM apical, basolateral medium
Text: The co-culture model consisted of immune cells (moDCs or monocytes) lying on the bottom of the culture well, and a Caco-2 polarized monolayer, mimicking intestinal epithelium, on a permeable insert. Immune cells were located on the serosal side of the epithelial barrier. In some inserts Candida albicans was loaded to the apical side of the epithelium, mimicking intestinal lumen colonization with this pathogenic fungus. This co-culture model allows yeast cells to contact only with the apical side of epithelial cells, but not with immune cells. Culture medium, containing cytokines, chemokines, and growth factors, produced by both epithelial and immune cells, was taken from basolateral chambers and analyzed by multiplex xMAP technology after incubation during 24 h when C. albicans cells switched to hyphal form.
For growing cells, mimicking epithelial barriers in vitro, Caco-2 cells were seeded onto 24-well polycarbonate Millicell cell culture inserts (0.4 μm, 0.6 cm^2 surface area) (Millipore, Burlington, MA, USA), precoated with 0.2% bovine gelatin (Sigma-Aldrich), at a density of 2.5 × 10^5 cells/cm^2. The cells were grown for 21 days in a complete DMEM/F12 (1:1) medium with re-feeding every 2–3 days with a fresh complete medium. The integrity of the Caco-2 cell monolayer was checked by measuring the transepithelial electrical resistance (TEER) using a Millicell-ERS Voltohmmeter (Millipore). Only cell monolayers with TEER > 400 Ωcm^2 (after subtracting TEER in blank inserts without Caco-2 cells) were used in transport across epithelial monolayer and cytokine production experiments.
Monocytes and moDCs were seeded into the wells of 48- and 24-well plates in the complete RPMI-1640 medium supplemented with 10% human AB serum (HABS, Capricorn Scientific) without antibiotics 24 h prior to the experiment, and kept in a humidified CO2-incubator (5% CO2, 37 °C). After 24 h, the medium in the wells of the 48-well plate was replaced by fresh complete RPMI-1640 medium with 10% HABS, supplemented with 2 µM of Psd1 for the sample wells or fresh medium alone for the control wells. Medium in the wells of the 24-well plate was replaced by fresh complete RPMI-1640 medium with 10% human serum without antibiotics. Then, Millicell inserts with Caco-2 monolayers with TEER > 400 Ωcm^2 were placed into the wells of the 24-well plate, containing monocytes or moDCs. Wells with Millicell inserts with Caco-2 monolayers without immune cells were used as control wells. Medium in apical chambers of Millicell inserts was replaced by fresh complete RPMI-1640 with 10% human serum medium containing Psd1 at the final concentration of 2 µM or Candida albicans at the concentration of 5 × 10^4 cells/mL or yeast cells together with the pea defensin at the same concentration. Fresh complete RPMI-1640 medium only with 10% human serum and without antibiotics was used in control wells. Plates were kept in CO2-incubator (5% CO2, 37 °C) for another 24 h. Culture supernatants from the wells of the 48-well plate and basolateral chambers of the 24-well plate were collected and stored at −70 °C degrees less than one month prior to the analytes assessment. […]

[1] = Caco-2/monocytes co-culture with C. albicans, 2 μM

Substance: Psd1: pea defensin from Pisum sativum (UNIPROT P81929), recombinant peptide overexpressed in Escherichia coli (KTCEHLADTYRGVCFTNASCDDHCKNKAHLISGTCHNWKCFCTQNC; UniProt P81929 1-46, looked up)
- EGF level (Caco-2/Mono+Candida+Psd1): 7 pg/mL
- Eotaxin level (Caco-2/Mono+Candida+Psd1): 4.44 pg/mL
- FGF-2 level (Caco-2/Mono+Candida+Psd1): 47.02 pg/mL
- FLT-3L level (Caco-2/Mono+Candida+Psd1): 0.83 pg/mL
- Fractalkine level (Caco-2/Mono+Candida+Psd1): 27.26 pg/mL
- G-CSF level (Caco-2/Mono+Candida+Psd1): 63.23 pg/mL
- GM-CSF level (Caco-2/Mono+Candida+Psd1): 2.65 pg/mL
- GROa level (Caco-2/Mono+Candida+Psd1): 1596 pg/mL
- IFNa2 level (Caco-2/Mono+Candida+Psd1): 15.36 pg/mL
- IFNg level (Caco-2/Mono+Candida+Psd1): <2.23↓ pg/ml
- IL-1RA level (Caco-2/Mono+Candida+Psd1): 7.97 pg/mL
- IL-1a level (Caco-2/Mono+Candida+Psd1): 29.04 pg/mL
- IL-1b level (Caco-2/Mono+Candida+Psd1): 26.83 pg/mL
- IL-2 level (Caco-2/Mono+Candida+Psd1): <0.95↓ pg/ml
- IL-3 level (Caco-2/Mono+Candida+Psd1): <0.60↓ pg/ml
- IL-4 level (Caco-2/Mono+Candida+Psd1): 3.07 pg/mL
- IL-5 level (Caco-2/Mono+Candida+Psd1): <0.30↓ pg/ml
- IL-6 level (Caco-2/Mono+Candida+Psd1): 631.32 pg/mL
- IL-7 level (Caco-2/Mono+Candida+Psd1): <0.38↓ pg/ml
- IL-8 level (Caco-2/Mono+Candida+Psd1): 8138 pg/mL
- IL-9 level (Caco-2/Mono+Candida+Psd1): 6.07 pg/mL
- IL-10 level (Caco-2/Mono+Candida+Psd1): 4.47 pg/mL
- IL-12 (p40) level (Caco-2/Mono+Candida+Psd1): 25.99 pg/mL
- IL-12 (p70) level (Caco-2/Mono+Candida+Psd1): <1.68↓ pg/ml
- IL-13 level (Caco-2/Mono+Candida+Psd1): 25.38 pg/mL
- IL-15 level (Caco-2/Mono+Candida+Psd1): 1.44 pg/mL
- IL-17A level (Caco-2/Mono+Candida+Psd1): 2.9 pg/mL
- IL-17E/IL-25 level (Caco-2/Mono+Candida+Psd1): <18.85↓ pg/ml
- IL-17F level (Caco-2/Mono+Candida+Psd1): <19.03↓ pg/ml
- IL-18 level (Caco-2/Mono+Candida+Psd1): 3.62 pg/mL
- IL-22 level (Caco-2/Mono+Candida+Psd1): 24.13 pg/mL
- IL-27 level (Caco-2/Mono+Candida+Psd1): 63.98 pg/mL
- IP-10 level (Caco-2/Mono+Candida+Psd1): 35.99 pg/mL
- M-GSF level (Caco-2/Mono+Candida+Psd1): 34.31 pg/mL
- MCP-1 level (Caco-2/Mono+Candida+Psd1): 9510 pg/mL
- MCP-3 level (Caco-2/Mono+Candida+Psd1): 273.49 pg/mL
- MDC level (Caco-2/Mono+Candida+Psd1): 1060 pg/mL
- MIG level (Caco-2/Mono+Candida+Psd1): 50.41 pg/mL
- MIP-1a level (Caco-2/Mono+Candida+Psd1): 22.02 pg/mL
- MIP-1b level (Caco-2/Mono+Candida+Psd1): 53.4 pg/mL
- PDGF-AA level (Caco-2/Mono+Candida+Psd1): 341.69 pg/mL
- PDGF-AB/BB level (Caco-2/Mono+Candida+Psd1): 805.91 pg/mL
- RANTES level (Caco-2/Mono+Candida+Psd1): 78.92 pg/mL
- TGF-a level (Caco-2/Mono+Candida+Psd1): 2.79 pg/mL
- TNFa level (Caco-2/Mono+Candida+Psd1): 33.8 pg/mL
- TNFb level (Caco-2/Mono+Candida+Psd1): 11.12 pg/mL
- VEGFa level (Caco-2/Mono+Candida+Psd1): 523.74 pg/mL
- sCD40L level (Caco-2/Mono+Candida+Psd1): 89.41 pg/mL
- EGF level (Caco-2/Mono+Psd1): 9.18 pg/mL
- Eotaxin level (Caco-2/Mono+Psd1): 4.17 pg/mL
- FGF-2 level (Caco-2/Mono+Psd1): 43.83 pg/mL
- FLT-3L level (Caco-2/Mono+Psd1): 1.29 pg/mL
- Fractalkine level (Caco-2/Mono+Psd1): 29.68 pg/mL
- G-CSF level (Caco-2/Mono+Psd1): 80.21 pg/mL
- GM-CSF level (Caco-2/Mono+Psd1): 4.74 pg/mL
- GROa level (Caco-2/Mono+Psd1): 1849 pg/mL
- IFNa2 level (Caco-2/Mono+Psd1): 18.56 pg/mL
- IFNg level (Caco-2/Mono+Psd1): <2.23↓ pg/ml
- IL-1RA level (Caco-2/Mono+Psd1): 10.99 pg/mL
- IL-1a level (Caco-2/Mono+Psd1): 137.08 pg/mL
- IL-1b level (Caco-2/Mono+Psd1): 62.38 pg/mL
- IL-2 level (Caco-2/Mono+Psd1): 3.01 pg/mL
- IL-3 level (Caco-2/Mono+Psd1): <0.60↓ pg/ml
- IL-4 level (Caco-2/Mono+Psd1): 2.67 pg/mL
- IL-5 level (Caco-2/Mono+Psd1): <0.30↓ pg/ml
- IL-6 level (Caco-2/Mono+Psd1): 830.31 pg/mL
- IL-7 level (Caco-2/Mono+Psd1): <0.38↓ pg/ml
- IL-8 level (Caco-2/Mono+Psd1): 7130 pg/mL
- IL-9 level (Caco-2/Mono+Psd1): 6.07 pg/mL
- IL-10 level (Caco-2/Mono+Psd1): 8.82 pg/mL
- IL-12 (p40) level (Caco-2/Mono+Psd1): 40.75 pg/mL
- IL-12 (p70) level (Caco-2/Mono+Psd1): 2.06 pg/mL
- IL-13 level (Caco-2/Mono+Psd1): 23.46 pg/mL
- IL-15 level (Caco-2/Mono+Psd1): 2.33 pg/mL
- IL-17A level (Caco-2/Mono+Psd1): 3.99 pg/mL
- IL-17E/IL-25 level (Caco-2/Mono+Psd1): <18.85↓ pg/ml
- IL-17F level (Caco-2/Mono+Psd1): <19.03↓ pg/ml
- IL-18 level (Caco-2/Mono+Psd1): 5.64 pg/mL
- IL-22 level (Caco-2/Mono+Psd1): 18.63 pg/mL
- IL-27 level (Caco-2/Mono+Psd1): 76.02 pg/mL
- IP-10 level (Caco-2/Mono+Psd1): 70.11 pg/mL
- M-GSF level (Caco-2/Mono+Psd1): 34.31 pg/mL
- MCP-1 level (Caco-2/Mono+Psd1): 9656 pg/mL
- MCP-3 level (Caco-2/Mono+Psd1): 354.38 pg/mL
- MDC level (Caco-2/Mono+Psd1): 1230 pg/mL
- MIG level (Caco-2/Mono+Psd1): 129.1 pg/mL
- MIP-1a level (Caco-2/Mono+Psd1): 26.21 pg/mL
- MIP-1b level (Caco-2/Mono+Psd1): 45.94 pg/mL
- PDGF-AA level (Caco-2/Mono+Psd1): 357.15 pg/mL
- PDGF-AB/BB level (Caco-2/Mono+Psd1): 985.45 pg/mL
- RANTES level (Caco-2/Mono+Psd1): 123.08 pg/mL
- TGF-a level (Caco-2/Mono+Psd1): 4.39 pg/mL
- TNFa level (Caco-2/Mono+Psd1): 44.58 pg/mL
- TNFb level (Caco-2/Mono+Psd1): 10.19 pg/mL
- VEGFa level (Caco-2/Mono+Psd1): 384.49 pg/mL
- sCD40L level (Caco-2/Mono+Psd1): 94.06 pg/mL
- production of IL-4 [1]: increased the production
- production of IL-8/CXCL8, IL-12, TNFα, G-CSF, and GM-CSF [1]: decreased inhibiting action of pathogenic fungus
- production of IL-22 [1]: statistically significantly (p < 0.05) increased
- production of MIG/CXCL9 [1]: decreased the production
- production of IL-2, IL-10, MDC and IL-17 (Caco-2/monocytes co-culture, 2 μM apical, no Candida): statistically significant increase
